The subject of experiment [1] is Normal Human foreskin fibroblasts (HFF). The experiment can be described thus: Methylene Blue Growth Inhibition Assay, HFF. In kind it is cell-based. The settings on record: 72 h, Cell Line HFF, 3 days, read-out: MeB IC50. Here is the method:
(§1) Normal Human foreskin fibroblasts (HFF) and human colon (HCT116, RKO), lung (H460), prostate (PC3), and breast tumor (MCF7) cell lines were cultured in high glucose DMEM (Life Technologies) containing 10% fetal bovine serum (FBS) at 37° C. in a humidified 10% CO2, 90% air incubator. Cells were harvested using trypsin/EDTA, counted using a haemocytometer, and plated in 100 μl of the appropriate media, at the following densities, in a 96-well tissue culture plate (Falcon 3075): HFF 5,000 cells/well, HCT116 3,000 cells/well, RKO 2,500 cells/well, H460 2,000 cells/well, PC3 8,000 cells/well, MCF7 4,000 cells/well. The next day, compounds were diluted in DMEM containing 100 μg/ml gentamicin, at twice the final required concentration, from 10 mM stock solutions in DMSO. 100μ/well of these dilutions were added to the 100 μl of media currently on the cell plates. Medium containing 0.6% DMSO was added to control wells. Compounds diluted in DMEM were added to all cell lines. The final concentration of DMSO in all wells was 0.3%. Cells were incubated at 37° C., 10% CO2 for 3 days. Medium was removed by aspiration. Cell biomass was estimated by staining cells with […] per well methylene blue (Sigma M9140, 0.5% in 50:50 ethanol:water), and incubation at room temperature for at least 30 minutes. Stain was removed, and the plates rinsed under a gentle stream of water, and air-dried. To release stain from the cells 100 μl of solubilization solution was added (1% N-lauroyl sarcosine, Sodium salt, Sigma L5125, in PBS), and plates were shaken gently for about 30 minutes. Optical density at 620 nm was measured on a microplate reader. Percent inhibition of cell growth was calculated relative to vehicle treated control wells. Concentration of compound that inhibits 50% of cell growth (IC50) was interpolated using nonlinear regression (Levenberg-Marquardt) and the equation, y=Vmax*(1-(x/(K+x)))+Y2, where “K” was equal to the IC50. In Table 1, +=10−>30 uM; ++=1−10 uM: +++=<1 uM.

For experiment [2], the system named is prostate (PC3) tumor cell line. The experiment can be described thus: Methylene Blue Growth Inhibition Assay, PC3. In kind it is cell-based. Particulars: Homo sapiens, 72 h; Cell Line PC3, 3 days; read-out: MeB IC50. Here is the method:
as §1

Experiment [3] deals with breast tumor (MCF7) cell line. The experiment can be described thus: Methylene Blue Growth Inhibition Assay, MCF7. In kind it is cell-based. The settings on record: Homo sapiens, 72 h; Cell Line MCF7, 3 days; read-out: MeB IC50. Here is the method: as §1
The next experiment addresses T1, PLK1 kinase domain (Homo sapiens, UniProt P53350).
T1 construct: made in house; host or cells: baculovirus-infected T. ni insect cells
The experiment can be described thus: Assay for Inhibition of PLK1 (SPA enzyme activity). In kind it is biochemical. Particulars: 2 μM ATP, read-out: Ave pIC50 PLK Enzyme Inhibition (converted). Here is the method: All procedures were performed at 4° C. Cells were lysed in so mM HEPES, 200 mM NaCl, so mM imidazole, 5% glycerol; pH 7.5. The homogenate was centrifuged at 14K rpm in a SLA-1500 rotor for 1 hr and the supernatant filtered through a 1.2 micron filter. The supernatant was loaded onto a Nickel chelating Sepharose (Amersham Pharmacia) column and washed with lysis buffer. Protein was eluted using 20%, 30% and 100% buffer B steps where buffer B is 50 mM HEPES, 200 mM NaCl, 300 mM imidazole, 5% glycerol; pH 7.5. Fractions containing PLK were determined by SDS-PAGE. Fractions containing PLK were diluted five-fold with so mM HEPES, 1 mM DTT, 5% glycerol; pH 7.5, then loaded on an SP Sepharose (Amersham Pharmacia) column. After washing the column with so mM HEPES, 1 mM DTT, 5% glycerol; pH 7.5, PLK was step eluted with so mM HEPES, 1 mM DTT, 500 mM NaCl; 5% glycerol; pH 7.5. PLK was concentrated using a 10 kDa molecular weight cutoff membrane and then loaded onto a Superdex 200 gel filtration (Amersham Pharmacia) column equilibrated in 25 mM HEPES, 1 mM DTT, 500 mM NaCl, 5% glycerol; pH 7.5. Fractions containing PLK were determined by SDS-PAGE. PLK was pooled, aliquoted and stored at −80° C. Samples were quality controlled using mass spectrometry, N-terminal sequencing and amino acid analysis.
B. Enzyme activity+/−inhibitors was determined as follows:
Compounds were added to the plate (1 μl in […]). […] Reaction Mix B is prepared as follows at 4° C.: • Reaction Mix B (Enzyme Mix) • 25 mM HEPES, pH 7.2 • 15 mM MgCl2 • 0.15 mg/ml BSA • 2 mM DTT • 2-10 nM PLK1 kinase domain
Reaction Mix A (20 μl) is added per well. Reaction Mix B (20 μl) is added per well. Incubate 1.5 hrs. at RT. The enzymatic reaction is stopped with 175 μl of SPA/EDTA bead mix (29 mM EDTA, 2.5 mg/ml Streptavidin-coated SPA in Standard Dulbecco's PBS (without Mg^2+ and Ca^2+), 60 μM ATP). Plates are sealed spun (after a 1 hr incubation at RT) at 1,000×g for 7 min or settled overnight, then plates counted in Packard TopCount for 30 seconds/well.

The subject of experiment [4] is colon (RKO) tumor cell line. The experiment can be described thus: Methylene Blue Growth Inhibition Assay, RKO. In kind it is cell-based. The settings on record: Homo sapiens, 72 h, 3 days, read-out: MeB IC50. Here is the method: as §1
In experiment [5] the test system is lung (H460) tumor cell line. The experiment can be described thus: Methylene Blue Growth Inhibition Assay, H460. In kind it is cell-based. Particulars: Homo sapiens, NCI-H460, 72 h; Cell Line H460, 3 days; read-out: MeB IC50. Here is the method: as §1
Experiment [6] relates to colon (HCT116) tumor cell line. The experiment can be described thus: Methylene Blue Growth Inhibition Assay, HCT116. Particulars: Homo sapiens, HCT-116, 72 h; Cell Line HCT116, 3 days; read-out: MeB IC50. In kind it is cell-based. Here is the method: as §1

The structures appear in SMILES notation. pIC50: −log10 of the molar value.

The values that follow come from US20080269298A1, “Benzimidazol-1-YL-thiophene compounds for the treatment of cancer” (priority 2002, published 2008).

The pIC50 is −log10 of the IC50, conventionally taken in molar units.

T1 sequence (P53350 21-346): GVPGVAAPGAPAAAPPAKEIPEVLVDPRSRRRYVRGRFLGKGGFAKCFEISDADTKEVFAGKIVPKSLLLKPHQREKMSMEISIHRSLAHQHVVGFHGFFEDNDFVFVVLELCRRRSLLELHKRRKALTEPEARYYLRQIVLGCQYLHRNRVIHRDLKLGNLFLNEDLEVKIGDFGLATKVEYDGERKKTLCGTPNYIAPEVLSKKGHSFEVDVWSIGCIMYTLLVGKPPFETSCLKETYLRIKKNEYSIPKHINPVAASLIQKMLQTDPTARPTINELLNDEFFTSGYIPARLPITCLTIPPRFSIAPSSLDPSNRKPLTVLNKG

`COc1cc2ncn(-c3cc(OCc4ccccc4SC)c(C(N)=O)s3)c2cc1OC` [Example 97]: the pIC50 in experiment [1], in experiment [2], in experiment [3], in experiment [4], in experiment [5] and in experiment [6] was 5.00 to 6.00 throughout. Also, the IC50 at PLK1 kinase domain is less than 0.1 µM.
In the case of `O=C(O)c1sc(-n2cnc3cc(Cl)c(Cl)cc32)cc1OCc1ccco1` [Example 78, 5-(5,6-Dichloro-1H-benzimidazol-1-yl)-3-(2-furylmethoxy)thiophene-2-carboxylic acid], the pIC50 in experiment [1], in experiment [2], in experiment [3], in experiment [4], in experiment [5] and in experiment [6] was less than 5.00 each time. Also, the IC50 at PLK1 kinase domain is less than 0.1 µM.
On to `COc1cc2ncn(-c3cc(OCc4ccccc4[S+](C)[O-])c(C(N)=O)s3)c2cc1OC` (stereo not shown) [Example 98, 5-(5,6-Dimethoxy-1H-benzimidazol-1-yl)-3-{[2-(methylsulfinyl)benzyl]oxy}thiophene-2-carboxamide], for which the pIC50 was less than 5.00 in experiment [1]; 5.00 to 6.00 in experiment [2]; 5.00 to 6.00 in experiment [3]; 5.00 to 6.00 in experiment [4]; 5.00 to 6.00 in experiment [5]; 5.00 to 6.00 in experiment [6]. Also, the IC50 on PLK1 kinase domain is 0.1 to 10 µM.
With `COc1cc2ncn(-c3cc(OCc4ccnc(N)c4)c(C(N)=O)s3)c2cc1OC` [Example 100, 3-[(2-Aminopyridin-4-yl)methoxy]-5-(5,6-dimethoxy-1H-benzimidazol-1-yl)thiophene-2-carboxamide], the pIC50 in experiment [1], in experiment [2], in experiment [3], in experiment [4], in experiment [5] and in experiment [6] was less than 5.00 each time. At PLK1 kinase domain, the IC50 was less than 0.1 µM.
Regarding `COc1cc2ncn(-c3cc(OCc4ccccc4[N+](=O)[O-])c(C(N)=O)s3)c2cc1OC` [Example 92, 5-(5,6-Dimethoxy-1H-benzimidazol-1-yl)-3-[(2-nitrobenzyl)oxy]thiophene-2-carboxamide], the pIC50 in experiment [1] was 5.00 to 6.00; in experiment [2] it was 5.00 to 6.00; in experiment [3] it was greater than 6.00; in experiment [4], greater than 6.00; in experiment [5], greater than 6.00; in experiment [6] it was greater than 6.00. On PLK1 kinase domain, the IC50 is less than 0.1 µM.
For the molecule `NC(=O)c1ccc2c(c1)ncn2-c1cc(OCc2ccccc2C(F)(F)F)c(C(N)=O)s1` [Example 125, 1-[5-(Aminocarbonyl)-4-({[2-(trifluoromethyl)phenyl]methyl}oxy)-2-thienyl]-1H-benzimidazole-5-carboxamide], the pIC50 in experiment [1] is less than 5.00; in experiment [2], less than 5.00; in experiment [3], 5.00 to 6.00; in experiment [4], 5.00 to 6.00; in experiment [5] it was 5.00 to 6.00; in experiment [6], 5.00 to 6.00. For the same molecule, the IC50 on PLK1 kinase domain is less than 0.1 µM.
Regarding `O=C(O)c1sc(-n2cnc3cc(Cl)c(Cl)cc32)cc1OCc1cccs1` [Example 80, 5-(5,6-Dichloro-1H-benzimidazol-1-yl)-3-(thien-2-ylmethoxy)-thiophene-2-carboxylic acid], the pIC50 in experiment [1], in experiment [2], in experiment [3], in experiment [4], in experiment [5] and in experiment [6] was less than 5.00 throughout. In addition, the IC50 on PLK1 kinase domain was less than 0.1 µM.
For the molecule `NC(=O)c1sc(-n2cnc3ccc(C(F)(F)F)cc32)cc1OCc1ccccc1Br` [Example 119, 3-[(2-Bromobenzyl)oxy]-5-[6-(trifluoromethyl)-1H-benzimidazol-1-yl]thiophene-2-carboxamide], the pIC50 in experiment [1] is less than 5.00; in experiment [2], less than 5.00; in experiment [3], 5.00 to 6.00; in experiment [4], 5.00 to 6.00; in experiment [5] it was 5.00 to 6.00; in experiment [6], 5.00 to 6.00. Besides, the IC50 on PLK1 kinase domain was less than 0.1 µM.
On to `COC(=O)c1sc(-n2cnc3cc(OC)c(OC)cc32)cc1OS(=O)(=O)c1ccccc1[N+](=O)[O-]` [Example 149], for which the pIC50 in experiment [1] was less than 5.00; in experiment [2], less than 5.00; in experiment [3], less than 5.00; in experiment [4], less than 5.00; in experiment [5], 5.00 to 6.00; in experiment [6] it was 5.00 to 6.00. Moreover, the IC50 at PLK1 kinase domain is less than 0.1 µM.
With `NC(=O)c1sc(-n2cnc3ccccc32)cc1NCc1ccccc1C(F)(F)F` [Example 133, 5-(1H-Benzimidazol-1-yl)-3-{[2-(trifluoromethyl)benzyl]amino}-thiophene-2-carboxamide], the pIC50 in experiment [1] was less than 5.00; in experiment [2], less than 5.00; in experiment [3], less than 5.00; in experiment [4], 5.00 to 6.00; in experiment [5], less than 5.00; in experiment [6], 5.00 to 6.00. Moreover, the IC50 on PLK1 kinase domain is 0.1 to 10 µM.
For `NC(=O)c1sc(-n2cnc3cc4c(cc32)OC(F)(F)O4)cc1OCc1ccccc1C(F)(F)F` [Example 88, 5-(2,2-Difluoro-5H-[1,3]dioxolo[4,5-f]benzimidazol-5-yl)-3-{[2-(trifluoromethyl)benzyl]oxy}thiophene-2-carboxamide], the pIC50 in experiment [1] is less than 5.00; in experiment [2], less than 5.00; in experiment [3] it was 5.00 to 6.00; in experiment [4], less than 5.00; in experiment [5], less than 5.00; in experiment [6] it was less than 5.00. Further, on PLK1 kinase domain, the IC50 was 0.1 to 10 µM.
`O=C(O)c1sc(-n2cnc3ccc(Cl)cc32)cc1OCc1ccc(F)cc1F` [Example 71, 5-(6-Chloro-1H-benzimidazol-1-yl)-3-[(2,4-difluorobenzyl)oxy]-thiophene-2-carboxylic acid]: the negative logarithm of the IC50 (pIC50) in experiment [1], in experiment [2], in experiment [3], in experiment [4], in experiment [5] and in experiment [6] was less than 5.00 in each case. Also, the IC50 on PLK1 kinase domain is less than 0.1 µM.
On to `Cc1ccccc1COc1cc(-n2cnc3cc(Cl)ccc32)sc1C(=O)O` [Example 34, 5-(5-Chloro-1H-benzimidazol-1-yl)-3-[(2-methylbenzyl)oxy]thiophene-2-carboxylic acid], for which the pIC50 in experiment [1], in experiment [2], in experiment [3], in experiment [4], in experiment [5] and in experiment [6] was less than 5.00 in each case. Moreover, the IC50 at PLK1 kinase domain is less than 0.1 µM.
